Experimental data as given in ChEMBL document CHEMBL4152252, “Fluorine walk: The impact of fluorine in quinolone amides on their activity against African sleeping sickness” (Eur J Med Chem, 2018).
Values after ≈ are worked out from the molar mass of the structure shown. Each block holds one compound with its values, some of them ahead of it.

What was measured:
[1] = Drug level in rat liver cytosol assessed as CYP450-mediated metabolite formation treated with 1-Butyl-6-fluoro-N-(4-fluorobenzyl)-7-morpholino-4-oxo-1,4-dihydroquinoline-3-carboxamide at 100 uM using NADPH/H+ as co-factor after 30 to 90 mins by LC/MSD iom trap method; type: ADME, subcellular
[2] = Drug level in rat liver microsomes assessed as CYP450-mediated metabolite formation treated with 1-Butyl-6-fluoro-N-(4-fluorobenzyl)-7-morpholino-4-oxo-1,4-dihydroquinoline-3-carboxamide at 100 uM using NADPH/H+ as co-factor after 30 to 90 mins by LC/MSD iom trap method; type: ADME
[3] = Half life in rat liver cytosol; type: ADME, subcellular
[4] = Stability in rat liver cytosol assessed as compound turnover per mg protein; type: ADME, subcellular
[5] = Thermodynamic equilibrium solubility of the compound in pH 7.4 phosphate buffered saline after 24 hrs by shake flask method; type: physicochemical; settings: read-out: Therm_solubility
[6] = tested on: Trypanosoma brucei brucei; test: Antitrypanosomal activity against trypomastigote forms of Trypanosoma brucei brucei TC 221 assessed as parasite growth inhibition after 48 hrs by Alamar blue assay; type: functional, organism-based; settings: TC 221, 48 h
[7] = Cytotoxicity against mouse J774.1 cells after 24 hrs by Alamar blue assay; type: cell-based
[8] = tested on: Trypanosoma brucei brucei; test: Antitrypanosomal activity against trypomastigote forms of Trypanosoma brucei brucei TC 221 assessed as parasite growth inhibition after 72 hrs by Alamar blue assay; type: functional, organism-based; settings: TC 221, 72 h
[9] = Selectivity index, ratio of CC50 for mouse J774.1 cells to IC50 for trypomastigote forms of Trypanosoma brucei brucei TC 221 assessed as parasite growth inhibition after 48 hrs; type: toxicity; settings: read-out: Ratio CC50/IC50
[10] = Octanol/water partition co-efficient, log P of the compound by HPLC based method; type: physicochemical
[11] = Drug level in rat liver cytosol assessed as CYP450-mediated metabolite formation treated with N-benzyl-1-butyl-5-fluoro-7-morpholino-4-oxo-1,4-dihydroquinoline-3-carboxamide at 100 uM using NADPH/H+ as co-factor after 30 to 90 mins by LC/MSD iom trap method; type: ADME, subcellular
[12] = Drug level in rat liver microsomes assessed as CYP450-mediated metabolite formation treated with N-benzyl-1-butyl-5-fluoro-7-morpholino-4-oxo-1,4-dihydroquinoline-3-carboxamide at 100 uM using NADPH/H+ as co-factor after 30 to 90 mins by LC/MSD iom trap method; type: ADME
[13] = Solubility of the compound in RPMI-1640 medium; type: physicochemical
[14] = Drug level in rat liver cytosol assessed as CYP450-mediated metabolite formation treated with 1-Butyl-5-fluoro-N-(4-fluorobenzyl)-7-morpholino-4-oxo-1,4-dihydroquinoline-3-carboxamide at 100 uM using NADPH/H+ as co-factor after 30 to 90 mins by LC/MSD iom trap method; type: ADME, subcellular
[15] = Drug level in rat liver microsomes assessed as CYP450-mediated metabolite formation treated with 1-Butyl-5-fluoro-N-(4-fluorobenzyl)-7-morpholino-4-oxo-1,4-dihydroquinoline-3-carboxamide at 100 uM using NADPH/H+ as co-factor after 30 to 90 mins by LC/MSD iom trap method; type: ADME
[16] = (§1) Drug metabolism in rat liver cytosol assessed as CYP450-mediated (w-1)-oxidation/alipathic hydroxylation by measuring 3-(benzylcarbamoyl)-5-fluoro-1-(3-hydroxybutyl)-7-morpholino-4-oxo-1,4-dihydroquinolinium formation at 100 uM using NADPH/H+ as co-factor after 30 to 90 mins by LC/MSD iom trap method; type: ADME, subcellular
[17] = Drug metabolism in rat liver cytosol assessed as CYP450-mediated amide hydrolysis oxidative N-dealkylation by measuring 3-carbamoyl-5-fluoro-1-methyl-7-morpholino-4-oxo-1,4-dihydroquinolinium formation at 100 uM using NADPH/H+ as co-factor after 30 to 90 mins by LC/MSD iom trap method; type: ADME, subcellular
[18] = Drug metabolism in rat liver microsomes assessed as CYP450-mediated amide hydrolysis oxidative N-dealkylation by measuring 3-carbamoyl-5-fluoro-1-methyl-7-morpholino-4-oxo-1,4-dihydroquinolinium formation at 100 uM using NADPH/H+ as co-factor after 30 to 90 mins by LC/MSD iom trap method; type: ADME
[19] = Drug metabolism in rat liver cytosol assessed as CYP450-mediated oxidative N-dealkylation by measuring 3-(benzylcarbamoyl)-1-ethyl-5-fluoro-7-morpholino-4-oxo-1,4-dihydroquinolinium formation at 100 uM using NADPH/H+ as co-factor after 30 to 90 mins by LC/MSD iom trap method; type: ADME, subcellular
[20] = Drug metabolism in rat liver microsomes assessed as CYP450-mediated oxidative N-dealkylation by measuring 3-(benzylcarbamoyl)-1-ethyl-5-fluoro-7-morpholino-4-oxo-1,4-dihydroquinolinium formation at 100 uM using NADPH/H+ as co-factor after 30 to 90 mins by LC/MSD iom trap method; type: ADME
[21] = Drug metabolism in rat liver microsomes assessed as CYP450-mediated amide hydrolysis amidase by measuring 1-butyl-3-carbamoyl-5-fluoro-7-morpholino-4-oxo-1,4-dihydroquinolinium formation at 100 uM using NADPH/H+ as co-factor after 30 to 90 mins by LC/MSD iom trap method; type: ADME
[22] = as §1, with “microsomes” for “cytosol”; type: ADME
[23] = Drug metabolism in rat liver cytosol assessed as CYP450-mediated amide hydrolysis amidase by measuring 1-butyl-3-carbamoyl-5-fluoro-7-morpholino-4-oxo-1,4-dihydroquinolinium formation at 100 uM using NADPH/H+ as co-factor after 30 to 90 mins by LC/MSD iom trap method; type: ADME, subcellular
[24] = Drug uptake in brain of B6/J mouse at 19.3 +/- 2.3 MBq, iv after 60 mins by autoradiography; type: ADME, organism-based; settings: in vivo, 1 h

Drug metabolism [1]: Metabolite_Detected
Drug metabolism [2]: Metabolite_Detected
Compound: CCCCn1cc(C(=O)O)c(=O)c2cc(F)c(N3CCOCC3)cc21

Compound: CCCCn1cc(C(=O)NCc2ccccc2)c(=O)c2cc(F)c(N3CCOCC3)cc21
half-life [3]: 5.8 h
Drug metabolism [4]: 47.11 pmol/min/mg protein
solubility thermodynamic at 24 h [5]: 0.005 µg/mL (≈ 0.0114 µM)

Compound: CCCCn1cc(C(=O)NCc2ccccc2)c(=O)c2cc(C(F)(F)F)c(N3CCOCC3)cc21
IC50 [6]: 540 nM
CC50 at 24 h [7]: 78600 nM
IC50 [8]: 590 nM
selectivity ratio at 48 h [9]: 146
logP [10]: 4.18

Compound: CCCCn1cc(C(=O)NCc2ccccc2)c(=O)c2cc(OC)c(N3CCOCC3)cc21
IC50 [6]: 310 nM
CC50 at 24 h [7]: 42000 nM
solubility thermodynamic at 24 h [5]: 2.73 µg/mL (≈ 6.07 µM)
IC50 [8]: 240 nM
selectivity ratio at 48 h [9]: 135
logP [10]: 3.73

Drug metabolism [1]: Metabolite_Detected
Drug metabolism [2]: Metabolite_Detected
Compound: Cn1cc(C(=O)NCc2ccc(F)cc2)c(=O)c2cc(F)c(N3CCOCC3)cc21

Compound: CCCCn1cc(C(=O)NCc2ccccc2)c(=O)c2ccc(N3CCOCC3)cc21
IC50 [6]: 230 nM
CC50 at 24 h [7]: > 100000 nM
solubility thermodynamic at 24 h [5]: 1.36 µg/mL (≈ 3.24 µM)
IC50 [8]: 200 nM
selectivity ratio at 48 h [9]: > 435
logP [10]: 3.51

Compound: CC(O)CCn1cc(C(=O)NCc2ccc(F)cc2)c(=O)c2cc(F)c(N3CCOCC3)cc21 (stereo unspecified)
Drug metabolism [1]: Metabolite_Detected
Drug metabolism [2]: Metabolite_Detected

Compound: CC(O)CCn1cc(C(=O)NCc2ccccc2)c(=O)c2c(F)cc(N3CCOCC3)cc21 (stereo unspecified)
Drug metabolism [11]: Metabolite_Detected
Drug metabolism [12]: Metabolite_Detected

Compound: O=C(NCc1ccccc1)c1cn(CCCF)c2cc(N3CCOCC3)c(F)cc2c1=O
IC50 [6]: 120 nM
CC50 at 24 h [7]: 42400 nM
solubility thermodynamic at 24 h [5]: 1.41 µg/mL (≈ 3.19 µM)
IC50 [8]: 170 nM
selectivity ratio at 48 h [9]: 353
logP [10]: 3.34

Compound: CCCCn1cc(C(=O)NCc2ccccc2)c(=O)c2cc(F)c(N3CCOCC3)c(F)c21
IC50 [6]: 60 nM
CC50 at 24 h [7]: > 20000 nM
IC50 [8]: 200 nM
selectivity ratio at 48 h [9]: > 333
solubility [13]: Insoluble
logP [10]: 4.57

Drug metabolism [14]: Metabolite_Detected
Drug metabolism [15]: Metabolite_Detected
Compound: CCn1cc(C(=O)NCc2ccc(F)cc2)c(=O)c2c(F)cc(N3CCOCC3)cc21

Compound: CCCCn1cc(C(=O)NCc2ccccc2)c(=O)c2c(OC)cc(N3CCOCC3)cc21
IC50 [6]: 760 nM
CC50 at 24 h [7]: 51800 nM
IC50 [8]: 650 nM
selectivity ratio at 48 h [9]: 68

Drug metabolism [11]: Metabolite_Detected
Drug metabolism [12]: Metabolite_Detected
Compound: Cn1cc(C(N)=O)c(=O)c2c(F)cc(N3CCOCC3)cc21

Drug metabolism [11]: Metabolite_Detected
Drug metabolism [12]: Metabolite_Detected
Compound: CCCCn1cc(C(N)=O)c(=O)c2c(F)cc(N3CCOCC3)cc21

Compound: CCCCn1cc(C(=O)NCc2ccccc2)c(=O)c2c(F)c(F)c(N3CCOCC3)cc21
IC50 [6]: 40 nM
CC50 at 24 h [7]: > 25000 nM
IC50 [8]: 30 nM
selectivity ratio at 48 h [9]: > 625
solubility [13]: Insoluble
logP [10]: 3.97

Drug metabolism [11]: Metabolite_Detected
Drug metabolism [12]: Metabolite_Detected
Compound: CCn1cc(C(=O)NCc2ccccc2)c(=O)c2c(F)cc(N3CCOCC3)cc21

Compound: CCCCn1cc(C(=O)NCc2ccccc2F)c(=O)c2cc(F)c(N3CCOCC3)cc21
IC50 [6]: 410 nM
CC50 at 24 h [7]: 37000 nM
IC50 [8]: 460 nM
selectivity ratio at 48 h [9]: 90

Compound: CCCCn1cc(C(=O)NCc2ccc(F)cc2F)c(=O)c2cc(F)c(N3CCOCC3)cc21
IC50 [6]: 30 nM
CC50 at 24 h [7]: 59600 nM
Drug metabolism [4]: 5.94 pmol/min/mg protein
IC50 [8]: 30 nM
selectivity ratio at 48 h [9]: 1990

Drug metabolism [1]: Metabolite_Detected
Drug metabolism [2]: Metabolite_Detected
Compound: O=C(NCc1ccc(F)cc1)c1c[nH]c2cc(N3CCOCC3)c(F)cc2c1=O

Compound: O=C(NCc1ccccc1)c1cn(CCCOCc2ccccc2)c2cc(N3CCOCC3)c(F)cc2c1=O
CC50 at 24 h [7]: > 100000 nM
logP [10]: 3.9

Compound: CCCCn1cc(C(=O)NCc2ccccc2)c(=O)c2c(F)cc(N3CCOCC3)cc21
IC50 [6]: 50 nM
CC50 at 24 h [7]: > 100000 nM
Drug metabolism [16]: Metabolite_Detected
half-life [3]: 7.2 h
Drug metabolism [17]: Metabolite_Detected
Drug metabolism [18]: Metabolite_Detected
Drug metabolism [19]: Metabolite_Detected
Drug metabolism [4]: 4.3 pmol/min/mg protein
Drug metabolism [20]: Metabolite_Detected
Drug metabolism [21]: Metabolite_Detected
solubility thermodynamic at 24 h [5]: 0.12 µg/mL (≈ 0.274 µM)
IC50 [8]: 80 nM
selectivity ratio at 48 h [9]: > 2000
Drug metabolism [22]: Metabolite_Detected
Drug metabolism [23]: Metabolite_Detected
logP [10]: 3.36

Compound: CCCCn1cc(C(=O)NCc2ccccc2)c(=O)c2ccc(N3CCOCC3)c(F)c21
IC50 [6]: 790 nM
CC50 at 24 h [7]: > 25000 nM
solubility thermodynamic at 24 h [5]: 0.23 µg/mL (≈ 0.526 µM)
IC50 [8]: 860 nM
selectivity ratio at 48 h [9]: > 32
solubility [13]: Insoluble
logP [10]: 4.09

Drug metabolism [14]: Metabolite_Detected
Drug metabolism [15]: Metabolite_Detected
Compound: CCCCn1cc(C(=O)O)c(=O)c2c(F)cc(N3CCOCC3)cc21

Compound: O=C(NCc1ccccc1)c1cn(CCCO)c2cc(N3CCOCC3)c(F)cc2c1=O
IC50 [6]: 270 nM
CC50 at 24 h [7]: 43100 nM
solubility thermodynamic at 24 h [5]: 18.7 µg/mL (≈ 42.5 µM)
IC50 [8]: 550 nM
selectivity ratio at 48 h [9]: 160
logP [10]: 3.04

Drug metabolism [14]: Metabolite_Detected
Drug metabolism [15]: Metabolite_Detected
Compound: O=C(NCc1ccc(F)cc1)c1c[nH]c2cc(N3CCOCC3)cc(F)c2c1=O

Compound: CCCCn1cc(C(=O)NCc2ccccc2)c(=O)c2c(N(C)C)cc(N3CCOCC3)cc21
IC50 [6]: 1850 nM
CC50 at 24 h [7]: 44000 nM
IC50 [8]: 4800 nM
selectivity ratio at 48 h [9]: 24

Drug metabolism [14]: Metabolite_Detected
Drug metabolism [15]: Metabolite_Detected
Compound: Cn1cc(C(=O)NCc2ccc(F)cc2)c(=O)c2c(F)cc(N3CCOCC3)cc21

Compound: O=C(NCc1ccccc1)c1cn(CCC[18F])c2cc(N3CCOCC3)c(F)cc2c1=O
Drug uptake [24]: Active
